# Data as given in patent US11771694B2, “Arylamide compounds for treatment and prevention of viral infections” (priority 2020, dated 2023).
# Values joined by “and” are separate entries in the source; they are usually repeats but may differ in a detail not shown here. Equal entries are not always repeated. Where two headings read alike, the source gives them in different places.
# Assays:
# [1] = test system: SARS-CoV-2 (Washington strain 2019-nCoV/USA-WA1/2020); settings: Vero; direct assay; 10 μM; 24 hpi
# [2] = test system: Calu-3 cells
# [3] = molecular target: human PDE4B2 (Homo sapiens, UniProt Q07343); test: PDE-Glo phosphodiesterase assay, PDE4B2; settings: IC50, inhibition of human PDE4B2, 1 μM cAMP substrate
# human PDE4B2, sequence (Q07343 1-564 isoform Q07343-2): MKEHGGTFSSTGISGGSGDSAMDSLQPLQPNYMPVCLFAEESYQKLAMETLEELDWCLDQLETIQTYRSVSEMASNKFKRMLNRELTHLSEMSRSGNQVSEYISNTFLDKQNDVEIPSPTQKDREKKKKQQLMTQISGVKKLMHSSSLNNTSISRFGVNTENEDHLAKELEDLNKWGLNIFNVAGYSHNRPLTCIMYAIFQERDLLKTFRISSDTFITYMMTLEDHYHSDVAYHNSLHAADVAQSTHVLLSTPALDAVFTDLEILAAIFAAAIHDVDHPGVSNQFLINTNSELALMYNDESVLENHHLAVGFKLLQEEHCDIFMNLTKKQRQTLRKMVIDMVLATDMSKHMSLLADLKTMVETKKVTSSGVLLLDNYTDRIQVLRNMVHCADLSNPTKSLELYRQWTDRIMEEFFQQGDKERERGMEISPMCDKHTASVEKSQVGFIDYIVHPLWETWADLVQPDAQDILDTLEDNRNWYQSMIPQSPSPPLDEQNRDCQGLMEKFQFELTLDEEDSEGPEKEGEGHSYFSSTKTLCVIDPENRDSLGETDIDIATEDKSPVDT
# [4] = test system: Providencia stuartii; test: Broth microdilution MIC; format: cell-based; settings: 2-3 isolates/organism, read-out: MIC
# [5] = test system: S. aureus; test: microbe, parasite or virus in culture; format: cell-based; settings: Staphylococcus aureus; value marked * = MIC90
# [6] = test system: Entero. faecium (VRE); test: Broth microdilution MIC; format: cell-based; settings: Enterococcus faecium; Entero. faecium (VRE); 2-3 isolates/organism; read-out: MIC
# [7] = test system: LPS-induced MMP-9 release; test: LPS-induced MMP-9 release, NR8383 cells, ELISA; format: cell-based; settings: Rattus norvegicus, 8-hour exposure, read-out: IC50, inhibition of LPS-induced MMP-9 release
# [8] = test system: SARS-CoV-2 spike pseudotyped luciferase virus; format: cell-based
# [9] = test system: HCoV-229E; test: Virus yield reduction assay, HCoV-229E on Huh-7 cells; format: cell-based; settings: Human coronavirus 229E, 48 hours post-infection
# Method: (§1) For these assays, brilacidin was included during viruses infection and post infection stages. The EC50 values were calculated from best-fit dose response curves with variable slope in Prism 8.
# [10] = test system: LPS-induced CINC-3 release; test: LPS-induced CINC-3 release, NR8383 cells, ELISA; format: cell-based; settings: Rattus norvegicus, 8-hour exposure, read-out: IC50, inhibition of LPS-induced CINC-3 release
# [11] = test system: LPS-induced IL-1β release; test: LPS-induced IL-1β release, NR8383 cells, ELISA; format: cell-based; settings: Rattus norvegicus, 8-hour exposure, read-out: IC50, inhibition of LPS-induced IL-1β release
# [12] = test system: Staph. epidermidis; test: Broth microdilution MIC; format: cell-based; settings: Staphylococcus epidermidis; Staph. epidermidis; 2-3 isolates/organism; read-out: MIC
# [13] = test system: Staph. saprophyticus; test: Broth microdilution MIC; format: cell-based; settings: Staphylococcus saprophyticus; Staph. saprophyticus; 2-3 isolates/organism; read-out: MIC
# [14] = test system: HCoV-OC43; test: Virus yield reduction assay, HCoV-OC43 on RD cells; format: cell-based; settings: Betacoronavirus 1, 48 hours post-infection
# Method: as §1
# [15] = test system: Klebsiella oxtoca; test: Broth microdilution MIC; format: cell-based; settings: Klebsiella oxtoca; 2-3 isolates/organism; read-out: MIC
# [16] = in vitro; settings: African green monkey
# [17] = test system: SARS-CoV-2; test: microbe, parasite or virus in culture; format: cell-based
# [18] = test system: Staph. spp. coagulase-; test: Broth microdilution MIC; format: cell-based; settings: Staph. spp. coagulase-; 2-3 isolates/organism; read-out: MIC
# [19] = test system: Klebsiella pneumoniae; test: Broth microdilution MIC; format: cell-based; settings: 2-3 isolates/organism, read-out: MIC
# [20] = test system: Acute Bacterial Skin and Skin Structure Infections (ABSSSI); test: Phase 2 trials in ABSSSI; format: in vivo, human; settings: single dose and 3-day regimen, IV infusion; Phase 2b CTIX-BRI-204
# Text: Further details on clinical success rates by baseline pathogen for the ABSSSI Phase 2b study are presented in FIG. 26 (blank cells=no participants presented with the specified baseline pathogen. EOT: End of Treatment. STFU: Short-Term Follow-Up).
# [21] = test system: human erythrocytes (RBCs)
# [22] = test system: SARS-CoV-2; format: cell-based; settings: Calu-3; MOI 0.05; 24 hpi
# [23] = test system: dextran sulfate sodium (DSS) induced colitis; test: Mouse DSS colitis model; format: in vivo, mice
# [24] = test system: SARS-CoV-2 (Washington strain 2019-nCoV/USA-WA1/2020); test: microbe, parasite or virus in culture; format: cell-based; settings: Severe acute respiratory syndrome coronavirus 2, Vero
# [25] = test system: luciferase-expressing pseudotyped virus (rVSV) containing the SARS-CoV-2 spike protein; format: cell-based
# [26] = test system: Pseud. aeruginosa; test: Broth microdilution MIC; format: cell-based; settings: Pseudomonas aeruginosa; Pseud. aeruginosa; 2-3 isolates/organism; read-out: MIC
# [27] = test system: Strept. pneumoniae; test: Broth microdilution MIC; format: cell-based; settings: Streptococcus pneumoniae; Strept. pneumoniae; 2-3 isolates/organism; read-out: MIC
# [28] = test system: Strept. viridians; test: Broth microdilution MIC; format: cell-based; settings: Strept. viridians; 2-3 isolates/organism; read-out: MIC
# [29] = test system: Entero. faecalis; test: Broth microdilution MIC; format: cell-based; settings: Enterococcus faecalis; Entero. faecalis; 2-3 isolates/organism; read-out: MIC
# [30] = test system: human liver cell line (HepG2)
# [31] = test system: Escherichia coli; test: Broth microdilution MIC; format: cell-based; settings: 2-3 isolates/organism, read-out: MIC
# [32] = test system: LPS-induced MCP-1 release; test: LPS-induced MCP-1 release, NR8383 cells, ELISA; format: cell-based; settings: Rattus norvegicus, 8-hour exposure, read-out: IC50, inhibition of LPS-induced MCP-1 release
# [33] = test system: Enterobacter cloacae; test: Broth microdilution MIC; format: cell-based; settings: 2-3 isolates/organism, read-out: MIC
# [34] = Severe acute respiratory syndrome coronavirus 2, Calu-3
# [35] = brilacidin 400 mg/kg, 5-ASA 50 mg/kg per rectum, vs DSS-treated control group, end of study
structure (smiles),measurement,setting,value
N=C(N)NCCCCC(=O)Nc1cc(C(F)(F)F)cc(NC(=O)c2cc(C(=O)Nc3cc(C(F)(F)F)cc(NC(=O)CCCCNC(=N)N)c3OC3CCNC3)ncn2)c1OC1CCNC1 (centres unmarked) [brilacidin],decrease in the viral genomic copies,[1],29%
same,toxicity in Calu-3 cells,"[2]; 10 and 20 μM, 24 hours",nontoxic
same,CC10 (90% viability),"[2]; Calu-3, 24 hpt, Hill model fit",26800 nM
same,IC50,[3],~3000 nM and 3000 nM
same,MIC,[4],16 to 64 µg/mL
same,MIC90,[5],1 µg/mL
same,MIC,[6],1 µg/mL
same,IC50,[7],2300 nM
same,inhibition (luciferase activity) vs vehicle control,[8]; 0.1 μg/ml,29%
same,inhibition (luciferase activity) vs vehicle control,[8]; 100 μg/ml,85%
same,EC50,[9],1950 ± 67 nM
same,IC50,[10],425 nM
same,IC50,[11],702 nM
same,MIC,[12],0.25 to 0.5 µg/mL
same,MIC,[13],0.25 to 0.5 µg/mL
same,EC50,[14],4810 ± 950 nM
same,MIC,[15],2 to 8 µg/mL
same,CC50,[16],79500 ± 2420 nM
same,reduction of infectious viral titer,[17]; 10 µM,95%
same,reduction of infectious viral titer,[17]; 20 µM,97%
same,Selectivity Index (CC50/IC50),[17]; Calu-3,426
same,inhibition exerted at the MOIs of 0.1 and 0.05,"[17]; Calu-3, 10 μM",comparable to each other
same,inhibition of virus at the lower MOIs,"[17]; Calu-3, 10 μM, MOIs 0.01 and 0.001",not showing statistical significance
same,"infectious virus titer, treatment of virus alone (E, entry)","[17]; Calu-3, inoculum incubated with 5, 10 or 20 μM for 1 hour, no pre- or post-treatment of cells, Washington and Italy strains",marked reductions of virus titer
same,IC50,[17]; [34],565 nM
same,IC90,[17]; [34],2630 nM
same,inhibition at 20 µM,"[17]; Severe acute respiratory syndrome coronavirus 2, Calu-3, read-out: inhibition of infectious viral titer",61%
same,MIC,[18],0.25 to 0.5 µg/mL
same,MIC,[19],1 to 2 µg/mL
same,efficacy (early clinical response),[20],comparable to that a 7-day regimen of daptomycin
same,Selectivity (EC50/MIC) RBCs,[21],558
same,"inhibition of infectious titer, each drug alone",[22],up to 90%
same,rectal bleeding,"[23]; 400 mg/kg per rectum Days 7-11, by Day 11 vs DSS-treated control group",significant decrease
same,stool consistency,"[23]; 400 mg/kg per rectum Days 7-11, vs DSS-treated control group",significantly more firm
same,mean reduction in IL-1β in distal colon tissue,[23]; [35],27%
same,mean reduction in IL-6 in distal colon tissue,[23]; [35],40%
same,inhibition at 10 µM,[24]; read-out: inhibition of SARS-CoV-2 (plaque assay),72%
same,inhibition at 10 µM,[24]; read-out: inhibition of infectious viral titer,53%
same,inhibition of pseudovirus (rVSV) attachment and entry,[25],inhibited the pseudovirus at both concentrations tested in a comparable manner
same,MIC,[26],32 µg/mL
same,MIC,[27],4 to 8 µg/mL
same,MIC,[28],2 to 8 µg/mL
same,MIC,[29],1 µg/mL
same,Selectivity (EC50/MIC) HepG2,[30],"1,031"
same,MIC,[31],1 to 2 µg/mL
same,IC50,[32],750 nM
same,MIC,[33],0.5 to 4 µg/mL
